# Measured values from publication PMC12275099, “VX-445 (elexacaftor) inhibits chloride secretion across human bronchial epithelial cells by directly blocking KCa3.1 channels” (PNAS Nexus, 2025).
# What was measured:
# WT CFTR HBEs = experiment: Ussing chamber Isc, DCEBIO-induced Cl- secretion; assay type: cell-based, human; conditions: VX-445 10 µM
# Source text: Primary human bronchial epithelial cells (HBEs) were collected from unused or discarded samples from the Center for Organ Recovery and Education via the University of Pittsburgh Pulmonary, Allergy, Critical Care, and Sleep Medicine Lung Biobank and Repository. All experimental procedures involving the use of HBEs were approved by the institutional review board (IRB STUDY19090084) and the Committee for Oversight of Research and Clinical Training Involving Decedents (CORID number 451) at the University of Pittsburgh. At all times, authors were blind to the identity of HBE donors. HBEs were cultured using the Vertex method ([72]). Studies were carried out on WT CFTR HBEs from 11 ([13]) donors and homozygous F508del/F508del CFTR HBEs from five ([5]) separate donors. HBEs were plated on Costar Transwell permeable supports ([…], 6.5 mm insert, polyester membrane, Corning) and grown at an air–liquid interface for 5+ weeks in HBE differentiation medium containing 2% Ultroser-G. Basolateral media were replaced three times per week. For whole-cell patch-clamp studies, HBEs were maintained in BronchiaLife airway media (LifeLine Cell Technology, LS-1047) and plated onto poly-L-lysine-coated coverslips (see below).
# Costar Transwell inserts were mounted in a modified Ussing chamber (P2300, Physiologic Instruments) and the monolayers continuously short-circuited (VCC MC8, Physiologic Instruments) by forcing the transepithelial voltage to 0 mV. Short-circuit current (Isc) measurements were taken in symmetric solutions, containing (in mM): 120 NaCl, 25 NaHCO3, 3.3 KH2PO4, 0.8 K2HPO4, 1.2 CaCl2, 1.2 MgCl2, and 10 glucose. The pH of the solution is 7.4 when gassed with 95% O2–5% CO2 at 37°C. Compounds were added cumulatively following the establishment of a new stable current response. Amiloride was added to the apical membrane, while all other compounds were added to both membranes due to their lipophilic nature. In all experiments, 10 µM amiloride was used to inhibit sodium absorption. Percent inhibition was calculated as the change in Isc (ΔIsc) between the forskolin or DCEBIO stable current level and the Isc following addition of the compound being assessed divided by the ΔIsc between the stable forskolin- or DCEBIO-induced Isc and the Isc following bumetanide addition.
# [1] = system: corrected F508del CFTR-expressing HBEs; experiment: Ussing chamber Isc, forskolin plus VX-770-stimulated Cl- secretion; assay type: cell-based, human
# Protocol: It has been proposed that, similar to potentiation of basolateral KCa3.1, potentiation of apical BKCa would further stimulate Cl^− secretion across HBEs by increasing the electrochemical driving force for Cl^− exit across the apical membrane ([18], [19]). To assess this possibility, we determined whether acute addition of VX-445 affects forskolin-mediated Cl^− secretion across primary WT CFTR-expressing HBEs, using Isc measurements. […] Note, as VX-445 is a lipophilic compound, it was added to both apical and basolateral membranes. The addition of bumetanide (20 µM) further reduced Isc, as expected. […] In a total of nine filters from three separate donors, VX-445 inhibited an average of 47 ± 2% of the current, subsequent to VX-661 (P < 0.01). […] The current observed following forskolin stimulation consists of both bumetanide-sensitive Cl^− secretion and bumetanide-insensitive HCO3− secretion ([32–34]). Thus, we determined whether VX-445 would inhibit the remaining current subsequent to bumetanide. […] Given the surprising inhibition of Cl^− secretion observed, we chose to stimulate Cl^− secretion via an alternate mechanism and assess the effect of VX-445. […] Thus, we determined the effect of VX-445 on the DCEBIO-induced Cl^− secretory response. […] We next determined whether VX-445 would similarly decrease the forskolin-stimulated transepithelial Cl^− currents in corrected F508del HBEs. […]
compound,measurement,setting,value
"Cc1nn(C)cc1S(=O)(=O)NC(=O)c1ccc(-n2ccc(OCC(C)(C)C(F)(F)F)n2)nc1N1C[C@@H](C)CC1(C)C [VX-445, elexacaftor]",inhibition at 10 µM,"WT CFTR HBEs; Homo sapiens, four donors, n = 12 (TRAM-34 series), read-out: inhibition of the DCEBIO-induced current",69 ± 3%
same,decrease of the DCEBIO-induced Cl- current,WT CFTR HBEs; n = 19,54 ± 2%
same,Isc in the presence of VX-445,"[1]; Fig 1J, single filters, VX-445 10 µM after forskolin/VX-770",10
same,decrease in forskolin plus VX-770-stimulated Isc,"[1]; acute VX-445 10 µM, F508del corrected overnight with VX-445 1 µM plus VX-661 3 µM, 35 filters from five donors",64 ± 2%
